Data published in publication PMC4350332 (Oncotarget, 2014).

Tests used:
[1] = tested on: PDC activity in K562 cells; assay: Cellular PDC activity assay, K562; type: cell-based; settings: 20 μM VER-246608 or […] Nov3r
Method: Cellular PDC activity was determined using a commercial assay kit (Abcam) as per the manufacturer's instructions. Briefly, PC-3 and K562 cell suspensions at a density of 1×10^6 and 1.5×10^6, respectively, were transferred to 96 well plates (250 μL per well). Cells were pre-treated with compound or DMSO for 1 h in a CO2incubator at 37°C followed by cell lysis in 250 μL of a 9:1 dilution of assay kit detergent (containing 20 mM NaF and 40 μM of the PDK inhibitor VER-246550) for 10 min on ice. The cellular debris was then pelleted at 1000g for 10 min. A 200 μL aliquot of each lysate was then transferred to the immunocapture microplate. PDC reaction rates were determined from the slope of the reaction curves and expressed as a percentage of the vehicle (DMSO) control values. […]
(§1) transformed and additional cancer cell lines. A, The indicated cell lines were seeded into […]
(§2) relevant media containing either 2 g/L D-glucose or D-galactose for 96 h. Cell mass was determined using the sulforhodamine B assay. Results are expressed as the percentage change vs DMSO control values for cells incubated in D-glucose containing media. […]
analysis of pyruvate dehydrogenase (PDH) activity in cell lysates using a commercially available ELISA-based assay kit (Abcam). Results are expressed as a percentage of the PDH reaction rate in DMSO treated cells. […]

[2] = tested on: HSP-70 induction in PC-3 cells (biomarker for HSP-90 inhibition); assay: HSP-70 in-cell ELISA assay; type: cell-based; settings: for EC50: PD marker (ELISA), PC-3 cells, 24 h
Method: DELFIA assay reagents (assay buffer, enhancement solution and europium-labeled secondary antibody) were obtained from Perkin Elmer (MD, USA). PC-3 cells were seeded (1×10^4 per well) into 96 well black-walled cell culture plates. The following day, the cells were treated with a 10 point tripling dilution series of test compound for 24 h followed by fixation with TBS containing 4% formaldehyde for 15 min at RT. The cells were then permeabilized the addition of permeabilization buffer (TBS containing 1% triton-X-100) and a further 15 min incubation at RT. The cells were then washed 3X with TBS, followed by the addition of quenching solution (TBS containing 1% H2O2), a 20 min incubation at RT and a further 3X wash with TBS. The permeabilized cells were then incubated for 30 minutes with blocking buffer (TBS containing 5% (w/v) dried milk) followed by a 90 min incubation with HSP-70 primary antibody (ENZO; 1:1000 dilution in TBS containing 200 μg/ml BSA). The wells were then washed 3X with wash buffer (TBS containing 0.1% Tween-20), followed by the addition of europium-labeled anti-mouse secondary antibody (1:1000 in DELFIA assay buffer) and a 1 h incubation at RT. The wells were then washed 3X with wash buffer followed by the addition of enhancement solution.

HSP-90 = molecular target: T1, HSP-90 (Homo sapiens, UniProt P08238); assay: HSP-90 fluorescence polarization assay; type: binding; settings: read-out: HSP-90 FP, IC50
T1 construct: made in house
T1 sequence (P08238 whole entry, species assumed): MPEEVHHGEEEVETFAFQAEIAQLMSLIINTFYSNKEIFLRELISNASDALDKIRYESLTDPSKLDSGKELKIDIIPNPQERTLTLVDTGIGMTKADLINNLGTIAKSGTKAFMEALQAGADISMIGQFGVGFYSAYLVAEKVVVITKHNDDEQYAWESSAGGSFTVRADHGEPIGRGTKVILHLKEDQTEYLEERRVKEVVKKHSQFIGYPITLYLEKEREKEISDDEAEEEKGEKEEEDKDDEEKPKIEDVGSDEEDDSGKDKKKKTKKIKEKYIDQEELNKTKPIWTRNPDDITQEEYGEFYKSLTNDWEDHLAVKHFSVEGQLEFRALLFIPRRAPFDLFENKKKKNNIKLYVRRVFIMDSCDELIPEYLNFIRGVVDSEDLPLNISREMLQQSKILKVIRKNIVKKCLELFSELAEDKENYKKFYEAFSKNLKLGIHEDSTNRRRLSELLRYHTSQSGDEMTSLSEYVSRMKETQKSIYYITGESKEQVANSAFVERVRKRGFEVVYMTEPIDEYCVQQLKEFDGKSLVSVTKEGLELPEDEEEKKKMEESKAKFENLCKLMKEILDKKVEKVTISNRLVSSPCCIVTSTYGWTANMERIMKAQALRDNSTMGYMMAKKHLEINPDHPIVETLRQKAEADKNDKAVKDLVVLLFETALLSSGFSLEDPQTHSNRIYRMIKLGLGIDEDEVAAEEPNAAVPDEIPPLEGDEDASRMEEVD
Method: The HSP-90ß FP assay was conducted as previously described.

[3] = tested on: p(Ser^293)E1α in PC-3 cells; assay: Immunoblot time course of biomarker suppression in PC-3 cells; type: cell-based; settings: Fig. 2F
Method: Cell lysates were prepared by washing cells with PBS followed by the addition of lysis buffer (2% SDS, 50 mM TRIS-pH 6.8) directly to the well. Equal amounts of lysate were loaded onto pre-cast 4-12% SDS-PAGE gels (Life technologies) followed by transfer to PVDF membrane. The membranes were blocked for 1 h in TBST containing 5% non-fat dried milk, followed by a 2 h incubation with the relevant primary antibody: PDH phospho(Ser^293)E1α (Genescript, custom rabbit polyclonal antibody), 1:600; PDH E1α (Abcam), 1:1000; PDP-1 (Sigma), 1:2000; PDK-1 (ENZO), 1:1000; HSP-70 (Santa Cruz), 1:5000; β-tubulin (Cell signaling technology), 1:1000. The membranes were then incubated with HRP-linked goat anti-rabbit or anti-mouse secondary antibodies (Santa Cruz) followed by visualization of immunoreactive bands by the addition of a chemiluminescent substrate (Millipore).

PC-3 cells [4] = assay: Sulforhodamine B cell mass assay, PC-3 cells; type: cell-based
Method: Compound cytotoxicity was determined using the Sulforhodamine B assay for cells cultured as a monolayer as described previously (45). For spheroid growth experiments, PC-3 cells were seeded (500 cells/well) into 96 well round bottom plates (Corning Costar 7007) in RPMI-1640 media containing 2.5% (w/v) Matrigel (BD Biosciences). […] Spheroid volumes were determined by obtaining diameter measurements from images taken on a Zeiss Axiovert 200M inverted microscope using the axiovision software.

PC-3 cells [5] = assay: Metabolite analysis (L-lactate, D-glucose, pyruvate, L-alanine) in PC-3 cells; type: cell-based; settings: for Reduction in media L-lactate levels: 1 h; for Intracellular pyruvate levels: 24 h
Method: Pyruvate, L-lactate, D-glucose and L-alanine levels were determined using commercially available assay kits (Abcam) as per the manufacturer's instructions.

[6] = tested on: hTert immortalized human foreskin fibroblast (HFF) cell line; assay: Glycolytic activity (L-lactate, D-glucose) in HFF cells; type: cell-based; settings: 6 h, 0.25 g/L D-glucose, 2% dialyzed FCS; VER-246608 effect only at top concentration (27 μM)
Method: Pyruvate, L-lactate, D-glucose and L-alanine levels were determined using commercially available assay kits (Abcam) as per the manufacturer's instructions. […]
as §1
as §2, with “media. B, HFF cells were seeded into 96 well plates at a density of 1x10^4 cells per well in 96 well plates.” for “media.”
and Nov3r (in DMEM media containing 0.25 g/L D-glucose and 2% dialyzed FCS) for 6 h, followed by the removal of cell culture media for analysis of L-lactate and D-glucose. At the end of the experiment the remaining media was aspirated and the cells transferred to a - 80 °C freezer for subsequent analysis of p(Ser293)E1α levels by MSD ELISA. C. K562 cells […]
analysis of pyruvate dehydrogenase (PDH) activity in cell lysates using a commercially available ELISA-based assay kit (Abcam). Results are expressed as a percentage of the PDH reaction rate in DMSO treated cells. D, Jurkat cells ([…]) were pre-treated in RPMI- […]
suspension in glucose-free RPMI-1640 media supplemented with 2 g/L 1,6-13C-D-Glucose followed by kinetic acquisition of 13C-NMR spectra at 10 min intervals. […]

SMILES: C[C@@H]1CN(C(=O)[C@](C)(O)C(F)(F)F)[C@@H](C)CN1C(=O)c1ccc(C#N)cc1 [Nov3r, reference compound]
- Increase in PDC activity [1]: an increase in PDC activity
- EC50 [2]: > 80 µM
- IC50 (HSP-90): > 200 µM
- Period of time to achieve maximal biomarker suppression [3]: 16 min
- Cytotoxicity/cytostasis-induction (PC-3 cells [4]; any of the culture conditions, up to a top concentration of 80 μM): no evidence of cytotoxicity/cytostasis-induction
- Change in media L-lactate levels (PC-3 cells [5]; PC-3, all concentrations tested, 0.25 g/L D-glucose, 2% dialyzed FCS): no change
- Effect on glycolytic activity in HFF cells [6]: did not alter glycolytic activity

SMILES: Cc1cnc(Cl)nc1-c1ccc(N(Cc2ccc(CNC(=O)C(F)F)cc2)C(=O)c2ccc(O)cc2O)cc1 [VER-246608]
- Increase in PDC activity [1]: an increase in PDC activity
- EC50 ([2]; Homo sapiens): > 80 µM
- Induction of HSP-70 in PC-3 cells ([2]; biomarker for HSP-90 inhibition): lack of a detectable induction
- IC50 (HSP-90): > 100 µM
- Period of time to achieve maximal biomarker suppression [3]: 16 min
- Effect on growth in serum-free media or 0.1% serum (PC-3 cells [4]; PC-3, 20 μM, 120 h, 0% or 0.1% FCS): complete suppression of growth
- Reduction in cell mass vs DMSO control (PC-3 cells [4]; PC-3, 20 μM, 120 h, D-glucose depletion with 15 mg/L L-glutamine): 50%
- Reduction in growth (PC-3 cells [4]; PC-3, 20 μM, 120 h, serum depleted conditions (0.5% FCS)): 70%
- Reduction in media L-lactate levels (PC-3 cells [5]; PC-3, 9 μM, 0.25 g/L D-glucose, 2% dialyzed FCS): 21%
- Intracellular pyruvate levels (PC-3 cells [5]; PC-3, 20 μM, D-glucose/L-glutamine and serum depleted conditions): marked reduction
- Intracellular pyruvate levels (PC-3 cells [5]; PC-3, 20 μM, standard culture conditions): no change
- Extracellular L-alanine levels (PC-3 cells [5]; PC-3, 20 μM, standard and low serum culture conditions): further substantial decrease
- Reduction in media L-lactate levels (PC-3 cells [5]; PC-3, 27 μM, 0.25 g/L D-glucose, 2% dialyzed FCS): 42%
- Extracellular L-lactate levels (PC-3 cells [5]; PC-3, 24 h, 10 and 20 μM, D-glucose/L-glutamine-depleted media): further reduction
- L-lactate production vs DMSO (PC-3 cells [5]; PC-3, 24 h, normal or low serum media): not altered
- Effect on D-glucose consumption (PC-3 cells [5]; PC-3, same concentrations that reduced L-lactate production (9 and 27 μM)): decreased D-glucose consumption
- Effect on glycolytic activity in HFF cells [6]: decrease in extracellular L-lactate and D-glucose levels
